Results on one molecule are retold here after patent US9492471B2, “Methods of treating a disease or disorder associated with Bruton'S Tyrosine Kinase” (Celgene Avilomics Research, Inc., priority 2013, dated 2016).

Where two headings read alike, the source gives them in different places.

What all share (experiment): HotSpot kinase profiling
Assay type in all cases: biochemical

The target of one test is T1, BMX/ETK (Homo sapiens, UniProt P51813).
T1 construct: purchased Reaction Biology Corp
T1 sequence (P51813 1-675): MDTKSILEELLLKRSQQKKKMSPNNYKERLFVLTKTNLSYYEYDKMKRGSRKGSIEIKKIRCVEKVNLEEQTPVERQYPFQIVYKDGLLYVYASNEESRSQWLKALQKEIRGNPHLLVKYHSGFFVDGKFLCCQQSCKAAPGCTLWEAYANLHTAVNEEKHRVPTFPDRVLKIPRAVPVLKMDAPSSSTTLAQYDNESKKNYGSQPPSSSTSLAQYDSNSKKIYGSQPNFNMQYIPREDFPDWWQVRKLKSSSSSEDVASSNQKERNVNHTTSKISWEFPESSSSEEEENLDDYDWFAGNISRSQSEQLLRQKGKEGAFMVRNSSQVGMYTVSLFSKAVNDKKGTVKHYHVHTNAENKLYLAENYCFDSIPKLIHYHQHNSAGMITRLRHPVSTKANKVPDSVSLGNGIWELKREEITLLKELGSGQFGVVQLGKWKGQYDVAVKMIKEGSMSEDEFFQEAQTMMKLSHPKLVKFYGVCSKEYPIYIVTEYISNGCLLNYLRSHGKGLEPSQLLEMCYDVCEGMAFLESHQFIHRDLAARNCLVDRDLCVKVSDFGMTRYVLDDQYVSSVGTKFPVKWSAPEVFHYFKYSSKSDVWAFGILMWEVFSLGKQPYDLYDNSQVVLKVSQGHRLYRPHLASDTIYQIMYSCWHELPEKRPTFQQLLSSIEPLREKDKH
The procedure, abridged:
(§1)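 Activity is measured by radiolabel transfer captured on P81 filters after a 2 h room-temperature reaction of kinase, substrate and cofactors. Values are percent inhibition against DMSO.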

The target in the next test is T2, CLK2 (Homo sapiens, UniProt P49760).
T2 construct: purchased Reaction Biology Corp
T2 sequence (P49760 whole entry): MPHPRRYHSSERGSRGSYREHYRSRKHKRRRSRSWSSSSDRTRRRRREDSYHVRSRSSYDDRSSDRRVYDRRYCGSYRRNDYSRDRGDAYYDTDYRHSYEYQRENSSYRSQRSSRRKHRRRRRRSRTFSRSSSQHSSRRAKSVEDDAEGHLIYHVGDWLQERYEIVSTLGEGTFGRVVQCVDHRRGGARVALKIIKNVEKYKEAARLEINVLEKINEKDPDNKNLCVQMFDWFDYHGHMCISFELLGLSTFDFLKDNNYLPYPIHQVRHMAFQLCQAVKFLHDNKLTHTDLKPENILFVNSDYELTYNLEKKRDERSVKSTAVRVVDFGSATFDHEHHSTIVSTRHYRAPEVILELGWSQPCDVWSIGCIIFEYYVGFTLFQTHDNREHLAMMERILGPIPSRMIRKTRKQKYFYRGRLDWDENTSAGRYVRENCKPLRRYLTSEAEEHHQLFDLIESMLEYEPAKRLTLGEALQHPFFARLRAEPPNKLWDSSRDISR
The gist of the method:
as §1

Another test has as its target T3, EPHB4 (Homo sapiens, UniProt P54760).
T3 construct: purchased Reaction Biology Corp
T3 sequence (P54760 16-987): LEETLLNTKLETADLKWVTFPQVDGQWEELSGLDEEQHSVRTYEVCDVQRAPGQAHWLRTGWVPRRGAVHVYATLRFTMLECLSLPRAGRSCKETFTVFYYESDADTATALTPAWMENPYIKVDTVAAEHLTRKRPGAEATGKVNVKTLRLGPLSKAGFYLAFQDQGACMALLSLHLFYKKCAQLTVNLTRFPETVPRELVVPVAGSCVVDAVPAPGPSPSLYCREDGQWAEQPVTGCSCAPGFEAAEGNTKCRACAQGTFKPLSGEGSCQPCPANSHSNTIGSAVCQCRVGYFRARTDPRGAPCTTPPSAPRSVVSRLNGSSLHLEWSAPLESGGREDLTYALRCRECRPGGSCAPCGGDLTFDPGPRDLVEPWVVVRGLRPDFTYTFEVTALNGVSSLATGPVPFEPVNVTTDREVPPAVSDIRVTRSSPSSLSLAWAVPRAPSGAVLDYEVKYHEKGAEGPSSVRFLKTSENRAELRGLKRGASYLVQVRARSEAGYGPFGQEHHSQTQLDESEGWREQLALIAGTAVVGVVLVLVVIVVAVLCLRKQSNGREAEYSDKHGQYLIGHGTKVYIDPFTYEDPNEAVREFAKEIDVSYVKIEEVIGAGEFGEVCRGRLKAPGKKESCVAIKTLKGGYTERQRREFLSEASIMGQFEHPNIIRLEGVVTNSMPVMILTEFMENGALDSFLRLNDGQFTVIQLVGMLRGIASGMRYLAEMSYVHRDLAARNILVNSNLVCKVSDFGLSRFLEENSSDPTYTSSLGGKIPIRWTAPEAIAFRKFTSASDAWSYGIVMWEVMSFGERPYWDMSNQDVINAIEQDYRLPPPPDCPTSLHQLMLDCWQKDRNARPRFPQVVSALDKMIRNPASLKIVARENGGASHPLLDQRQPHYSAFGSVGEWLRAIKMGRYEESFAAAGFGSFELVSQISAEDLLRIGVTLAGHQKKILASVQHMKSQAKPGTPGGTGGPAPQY
The gist of the method: as §1

The target of a further test is T4, ERBB4/HER4 (Homo sapiens, UniProt Q15303).
T4 construct: purchased Reaction Biology Corp
T4 sequence (Q15303 26-1308): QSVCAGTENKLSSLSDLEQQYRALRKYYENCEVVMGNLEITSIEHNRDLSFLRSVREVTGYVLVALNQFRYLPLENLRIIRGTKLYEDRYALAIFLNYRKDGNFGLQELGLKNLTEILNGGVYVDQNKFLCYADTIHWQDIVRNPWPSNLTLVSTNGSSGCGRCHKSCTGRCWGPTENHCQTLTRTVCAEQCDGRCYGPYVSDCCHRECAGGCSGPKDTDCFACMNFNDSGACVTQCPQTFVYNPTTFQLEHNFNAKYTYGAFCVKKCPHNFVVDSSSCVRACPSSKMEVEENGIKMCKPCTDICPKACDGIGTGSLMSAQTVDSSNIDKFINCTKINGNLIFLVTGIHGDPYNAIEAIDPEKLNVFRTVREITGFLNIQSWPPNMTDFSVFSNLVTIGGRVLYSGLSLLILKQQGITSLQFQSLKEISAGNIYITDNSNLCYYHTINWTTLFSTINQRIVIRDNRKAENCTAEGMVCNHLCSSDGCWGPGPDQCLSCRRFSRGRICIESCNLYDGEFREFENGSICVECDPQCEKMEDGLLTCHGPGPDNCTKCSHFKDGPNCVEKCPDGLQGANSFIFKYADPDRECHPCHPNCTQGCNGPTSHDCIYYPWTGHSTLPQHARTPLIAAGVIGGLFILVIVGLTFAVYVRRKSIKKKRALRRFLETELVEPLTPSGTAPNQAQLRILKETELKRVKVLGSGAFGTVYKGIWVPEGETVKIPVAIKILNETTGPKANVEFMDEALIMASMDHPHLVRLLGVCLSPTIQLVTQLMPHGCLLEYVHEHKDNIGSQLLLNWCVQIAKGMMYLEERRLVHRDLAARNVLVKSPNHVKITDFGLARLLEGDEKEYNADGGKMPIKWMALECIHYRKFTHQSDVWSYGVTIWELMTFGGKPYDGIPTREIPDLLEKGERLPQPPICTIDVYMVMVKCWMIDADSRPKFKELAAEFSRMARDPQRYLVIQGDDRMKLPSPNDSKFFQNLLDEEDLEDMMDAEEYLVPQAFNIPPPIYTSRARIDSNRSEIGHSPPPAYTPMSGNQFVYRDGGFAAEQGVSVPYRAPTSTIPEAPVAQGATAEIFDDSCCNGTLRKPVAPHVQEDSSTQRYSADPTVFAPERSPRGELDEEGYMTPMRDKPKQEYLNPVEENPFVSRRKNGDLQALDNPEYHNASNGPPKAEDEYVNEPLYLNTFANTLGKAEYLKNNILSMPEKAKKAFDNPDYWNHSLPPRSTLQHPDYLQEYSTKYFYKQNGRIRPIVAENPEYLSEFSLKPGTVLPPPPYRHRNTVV
The gist of the method:
as §1

Another test addresses T5, SGK2 (Homo sapiens, UniProt Q9HBY8).
T5 construct: purchased Reaction Biology Corp
T5 sequence (Q9HBY8 1-367): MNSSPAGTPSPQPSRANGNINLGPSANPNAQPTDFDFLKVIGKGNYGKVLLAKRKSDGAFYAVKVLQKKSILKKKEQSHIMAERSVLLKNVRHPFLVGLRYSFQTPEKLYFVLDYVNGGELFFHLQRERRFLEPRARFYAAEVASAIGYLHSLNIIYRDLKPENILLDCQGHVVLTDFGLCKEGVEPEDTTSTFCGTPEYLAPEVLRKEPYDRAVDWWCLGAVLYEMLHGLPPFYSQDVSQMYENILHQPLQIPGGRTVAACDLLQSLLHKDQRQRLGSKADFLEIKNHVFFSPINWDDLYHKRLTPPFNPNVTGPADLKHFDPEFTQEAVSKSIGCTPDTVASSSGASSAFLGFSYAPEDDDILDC
The procedure, abridged:
as §1

Setting [1] is: read-out: % Enzyme Activity (relative to DMSO controls) Run 1.
Setting [2] is: read-out: % Enzyme Activity (relative to DMSO controls) Run 2.

What is called inhibition is the percentage by which the read-out fell short of the control. The low end stands for a weak effect, the high end for a strong effect. As to `C=CC(=O)Nc1cccc(Nc2nc(Nc3ccc(OCCOC)c(F)c3)ncc2F)c1` [Compound 2], the inhibition at 3 µM on BMX/ETK turned out to be 98.9%; against CLK2, 49.6%; on EPHB4, 18.6%; against ERBB4/HER4, 91.3%; at SGK2, 26%. Further, the remaining activity at 3 µM at BMX/ETK (setting [1]) worked out at 0.93%; at BMX/ETK (setting [2]), 1.23%; on CLK2 (setting [1]) it was 50.2%; at CLK2 (setting [2]), 50.6%; on EPHB4 (setting [1]), 81.2%; at EPHB4 (setting [2]), 81.5%. Moreover, the remaining activity at 3 µM on ERBB4/HER4 (setting [1]) came out at 9.15%; on ERBB4/HER4 (setting [2]), 8.32%; on SGK2 (setting [1]) it was 71.4%; on SGK2 (setting [2]), 76.6%.
